Results taken from patent publication US20240350447A1, “DELIVERY METHODS FOR TREATING BRAIN AND CENTRAL NERVOUS SYSTEM DISEASES” (JENIVISION INC., priority 2021, published 2024).

Experiments:
[1] = Baseline endogenous levels of DHA, DHA-EE and JV-DE1; type: in vivo; conditions: undosed Bama minipigs
Protocol: Endogenous levels were measured in the plasma, cerebrospinal fluid, ocular tissues (retina, optic nerve, ocular muscles), and brain. The endogenous levels DHA are not attributable to NIODP administration of DHA, DHA-EE, or JV-DE1. The baseline data collected in Table 4 was taken from the same lot of pigs, from the same vendor, as the information collected in Tables 5-7.

[2] = DHA-EE distribution after single periorbital skin administration; type: in vivo, Bama minipigs
Protocol: In this example, 6174 μg/eye of docohexaenoic acid ethyl ester (DHA-EE) was applied to the periorbital skin of a left eye of a Bama minipig. […] 21099.7 ng/g of tissue and 21336.3 ng/g of tissue of DHA was measured in the left and right halves of the brain, respectively. […] The average amount of DHA present in the brain 3 hours post-dosage was 21218 ng/g.
Given that the average Bama pig brain weighs around 60 g, the amount of DHA delivered to the brain can be estimated to be 27,600 ng or 27.6 μg. Therefore, the percentage of administered dose=27.6 μg delivered to brain/6174 μg dosed=0.45% of DHA topically administered to the pig via periorbital administration was delivered to the brain. As a comparison, only about 0.025% of DHA that is orally administered is delivered to the brain or CNS.

[3] = 0 h, DHA-EE 6174 μg to periorbital skin of left eye
[4] = 1 h, DHA-EE 6174 μg to periorbital skin of left eye
[5] = 3 h, DHA-EE 6174 μg to periorbital skin of left eye

## CC/C=C\C/C=C\C/C=C\C/C=C\C/C=C\C/C=C\CCC(=O)OCC [DHA-EE, Docosahexaenoic acid ethyl ester]
[1]
  Baseline endogenous concentration in brain: BLQ
  Baseline endogenous concentration in cerebrospinal fluid: BLQ
  Baseline endogenous concentration in eye tissue homogenate including (Retina, optic nerve, ocular muscle): BLQ
  Baseline endogenous concentration in plasma: BLQ
[2]; [3]
  Drug Concentration in Plasma, analyte DHA: BLQ
  Drug Concentration in Plasma, analyte DHA-EE: BLQ
[2]; [4]
  Drug Concentration in Plasma, analyte DHA: BLQ
  Drug Concentration in Plasma, analyte DHA-EE: BLQ
[2]; 3 h, DHA-EE 6174 μg periorbital, whole brain estimate
  Percentage of administered dose delivered to the brain (as DHA): 0.45%
[2]; [5]
  Analyte DHA, % of administered dose: Cerebrospinal fluid: 0%
  Analyte DHA, % of administered dose: brain-left: 0.332%
  Analyte DHA, % of administered dose: brain-right: 0.562%
  Analyte DHA, % of administered dose: inferior rectus muscle-left: 0.008%
  Analyte DHA, % of administered dose: inferior rectus muscle-right: 0.009%
  Analyte DHA, % of administered dose: lateral rectus muscle-left: 0.004%
  Analyte DHA, % of administered dose: lateral rectus muscle-right: 0.010%
  Analyte DHA, % of administered dose: medial rectus muscle-left: 0.020%
  Analyte DHA, % of administered dose: medial rectus muscle-right: 0.016%
  Analyte DHA, % of administered dose: optic nerve-left: 0.011%
  Analyte DHA, % of administered dose: optic nerve-right: 0.031%
  Analyte DHA, % of administered dose: retina-left: 0.130%
  Analyte DHA, % of administered dose: retina-right: 0.110%
  Analyte DHA, % of administered dose: superior rectus muscle-left: 0.043%
  Analyte DHA, % of administered dose: superior rectus muscle-right: 0.005%
  Analyte DHA, Concentration in Tissue: Cerebrospinal fluid: 0 ng/g
  Analyte DHA, Concentration in Tissue: brain-left: 21099.7 ng/g
  Analyte DHA, Concentration in Tissue: brain-right: 21336.3 ng/g
  Analyte DHA, Concentration in Tissue: inferior rectus muscle-left: 3161.1 ng/g
  Analyte DHA, Concentration in Tissue: inferior rectus muscle-right: 1287.8 ng/g
  Analyte DHA, Concentration in Tissue: lateral rectus muscle-left: 1356.3 ng/g
  Analyte DHA, Concentration in Tissue: lateral rectus muscle-right: 1085.6 ng/g
  Analyte DHA, Concentration in Tissue: medial rectus muscle-left: 4874.6 ng/g
  Analyte DHA, Concentration in Tissue: medial rectus muscle-right: 1690.7 ng/g
  Analyte DHA, Concentration in Tissue: optic nerve-left: 8794.6 ng/g
  Analyte DHA, Concentration in Tissue: optic nerve-right: 8839.4 ng/g
  Analyte DHA, Concentration in Tissue: retina-left: 48882.9 ng/g
  Analyte DHA, Concentration in Tissue: retina-right: 41629.4 ng/g
  Analyte DHA, Concentration in Tissue: superior rectus muscle-left: 10400.7 ng/g
  Analyte DHA, Concentration in Tissue: superior rectus muscle-right: 743.6 ng/g
  Analyte DHA-EE, % of administered dose: Cerebrospinal fluid: 0%
  Analyte DHA-EE, % of administered dose: brain-left: 0%
  Analyte DHA-EE, % of administered dose: brain-right: 0%
  Analyte DHA-EE, % of administered dose: inferior rectus muscle-left: 0.02%
  Analyte DHA-EE, % of administered dose: inferior rectus muscle-right: 0%
  Analyte DHA-EE, % of administered dose: lateral rectus muscle-left: 0.003%
  Analyte DHA-EE, % of administered dose: lateral rectus muscle-right: 0%
  Analyte DHA-EE, % of administered dose: medial rectus muscle-left: 0.02%
  Analyte DHA-EE, % of administered dose: medial rectus muscle-right: 0%
  Analyte DHA-EE, % of administered dose: optic nerve-left: 0%
  Analyte DHA-EE, % of administered dose: optic nerve-right: 0%
  Analyte DHA-EE, % of administered dose: retina-left: 0%
  Analyte DHA-EE, % of administered dose: retina-right: 0%
  Analyte DHA-EE, % of administered dose: superior rectus muscle-left: 0.04%
  Analyte DHA-EE, % of administered dose: superior rectus muscle-right: 0%
  Analyte DHA-EE, Concentration in Tissue: Cerebrospinal fluid: 0 ng/g
  Analyte DHA-EE, Concentration in Tissue: brain-left: 0 ng/g
  Analyte DHA-EE, Concentration in Tissue: brain-right: 0 ng/g
  Analyte DHA-EE, Concentration in Tissue: inferior rectus muscle-left: 7444.8 ng/g
  Analyte DHA-EE, Concentration in Tissue: inferior rectus muscle-right: 0 ng/g
  Analyte DHA-EE, Concentration in Tissue: lateral rectus muscle-left: 995.7 ng/g
  Analyte DHA-EE, Concentration in Tissue: lateral rectus muscle-right: 0 ng/g
  Analyte DHA-EE, Concentration in Tissue: medial rectus muscle-left: 7382.3 ng/g
  Analyte DHA-EE, Concentration in Tissue: medial rectus muscle-right: 0 ng/g
  Analyte DHA-EE, Concentration in Tissue: optic nerve-left: 0 ng/g
  Analyte DHA-EE, Concentration in Tissue: retina-left: 0 ng/g
  Analyte DHA-EE, Concentration in Tissue: retina-right: 0 ng/g
  Analyte DHA-EE, Concentration in Tissue: superior rectus muscle-left: 12844.5 ng/g
  Analyte DHA-EE, Concentration in Tissue: superior rectus muscle-right: 0 ng/g
  Average DHA present in the brain: 21218 ng/g
  DHA-EE in ocular muscles of the dosed eye: detectable
  DHA-EE measured in the brain: no DHA-EE was measured in the brain
  Drug Concentration in Plasma, analyte DHA: BLQ
  Drug Concentration in Plasma, analyte DHA-EE: BLQ
